Measured values taken from ChEMBL document CHEMBL3885861, “Open TG-GATES”.

Organism: Rattus norvegicus
Assay: Open TG-GATES - Regimen: Single
Assay type: toxicity, organism-based, Sprague-Dawley
Set-up: regimen Single, gender Male, age 6 weeks
Conditions: in vivo, iv, 0 mg/kg, route intravenous injection, dose level Control; for APTT / Bas / Eos / Fbg / Hb / Ht / Lym / MCH / MCHC / MCV / Mono / Neu / PT / Plat / RBC / Ret / WBC: tissue Blood; for KIDNEY_L / KIDNEY_R / KIDNEY_TOTAL: tissue Kidney; for LIVER: tissue Liver; for A/G / ALP / ALT / AST / BUN / CRE / Ca / Cl / DBIL / GLC / IP / K / LDH / Na / PL / RALB / TBIL / TC / TG / TP / gamma-GTP: tissue Plasma

Structure (SMILES): CN(C)c1ncnc2c1ncn2[C@@H]1O[C@H](CO)[C@@H](N)[C@H]1O [PUROMYCIN AMINONUCLEOSIDE]
- TERMINAL_BW (3 h): 211.9 g
- APTT (3 h): 22.7 s
- Bas (3 h): 0%
- Eos (3 h): 1%
- Fbg (3 h): 253 mg/dL
- Hb (3 h): 12.7 g/dL
- Ht (3 h): 37.2%
- Lym (3 h): 82.6%
- MCH (3 h): 21.3 pg
- MCHC (3 h): 34.1%
- MCV (3 h): 62.5 fL
- Mono (3 h): 2.2%
- Neu (3 h): 13.6%
- PT (3 h): 16.1 s
- Plat (3 h): 120.5 x10_4/uL
- RBC (3 h): 594.8 x10_4/ul
- Ret (3 h): 7.1%
- WBC (3 h): 122.5 x10_2/uL
- KIDNEY_L (3 h): 0.9 g
- KIDNEY_R (3 h): 0.9 g
- KIDNEY_TOTAL (3 h): 1.9 g
- LIVER (3 h): 9.5 g
- A/G (3 h): 1.2
- ALP (3 h): 1324.8 IU/L
- ALT (3 h): 32.6 IU/L
- AST (3 h): 66.4 IU/L
- BUN (3 h): 13.2 mg/dL
- CRE (3 h): 0.2 mg/dL
- Ca (3 h): 11 mg/dL
- Cl (3 h): 105.2 meq/L
- DBIL (3 h): 0.002 mg/dL
- GLC (3 h): 191.4 mg/dL
- IP (3 h): 7.7 mg/dL
- K (3 h): 4.6 meq/L
- LDH (3 h): 171.2 IU/L
- Na (3 h): 140.4 meq/L
- PL (3 h): 130.2 mg/dL
- RALB (3 h): 2.9 g/dL
- TBIL (3 h): 0.022 mg/dL
- TC (3 h): 68 mg/dL
- TG (3 h): 69 mg/dL
- TP (3 h): 5.3 g/dL
- gamma-GTP (3 h): 1 IU/L
- TERMINAL_BW (6 h): 212.9 g
- APTT (6 h): 22 s
- Bas (6 h): 0%
- Eos (6 h): 1%
- Fbg (6 h): 301.2 mg/dL
- Hb (6 h): 12.7 g/dL
- Ht (6 h): 37.4%
- Lym (6 h): 81.6%
- MCH (6 h): 21.8 pg
- MCHC (6 h): 34.1%
- MCV (6 h): 64 fL
- Mono (6 h): 2.6%
- Neu (6 h): 14%
- PT (6 h): 16 s
- Plat (6 h): 122.7 x10_4/uL
- RBC (6 h): 584.8 x10_4/ul
- Ret (6 h): 8.2%
- WBC (6 h): 100.6 x10_2/uL
- KIDNEY_L (6 h): 0.9 g
- KIDNEY_R (6 h): 0.9 g
- KIDNEY_TOTAL (6 h): 1.9 g
- LIVER (6 h): 9.4 g
- A/G (6 h): 1.3
- ALP (6 h): 1216.4 IU/L
- ALT (6 h): 37.8 IU/L
- AST (6 h): 70 IU/L
- BUN (6 h): 11.4 mg/dL
- CRE (6 h): 0.2 mg/dL
- Ca (6 h): 11.2 mg/dL
- Cl (6 h): 106.4 meq/L
- DBIL (6 h): 0 mg/dL
- GLC (6 h): 188.8 mg/dL
- IP (6 h): 8.3 mg/dL
- K (6 h): 4.3 meq/L
- LDH (6 h): 177.8 IU/L
- Na (6 h): 140.4 meq/L
- PL (6 h): 140.2 mg/dL
- RALB (6 h): 3 g/dL
- TBIL (6 h): 0.022 mg/dL
- TC (6 h): 80 mg/dL
- TG (6 h): 70.6 mg/dL
- TP (6 h): 5.3 g/dL
- gamma-GTP (6 h): 1.4 IU/L
- TERMINAL_BW (9 h): 212.6 g
- APTT (9 h): 21.9 s
- Bas (9 h): 0%
- Eos (9 h): 1%
- Fbg (9 h): 314.6 mg/dL
- Hb (9 h): 12.9 g/dL
- Ht (9 h): 37.9%
- Lym (9 h): 76.2%
- MCH (9 h): 20.7 pg
- MCHC (9 h): 33.9%
- MCV (9 h): 61 fL
- Mono (9 h): 2.8%
- Neu (9 h): 19.2%
- PT (9 h): 16.2 s
- Plat (9 h): 126.3 x10_4/uL
- RBC (9 h): 621.4 x10_4/ul
- Ret (9 h): 7.1%
- WBC (9 h): 94.1 x10_2/uL
- KIDNEY_L (9 h): 1 g
- KIDNEY_R (9 h): 1 g
- KIDNEY_TOTAL (9 h): 1.9 g
- LIVER (9 h): 9.1 g
- A/G (9 h): 1.2
- ALP (9 h): 1259.6 IU/L
- ALT (9 h): 38.2 IU/L
- AST (9 h): 73.2 IU/L
- BUN (9 h): 11.6 mg/dL
- CRE (9 h): 0.1 mg/dL
- Ca (9 h): 11.1 mg/dL
- Cl (9 h): 104.4 meq/L
- DBIL (9 h): 0 mg/dL
- GLC (9 h): 191.6 mg/dL
- IP (9 h): 9.4 mg/dL
- K (9 h): 4.3 meq/L
- LDH (9 h): 149.4 IU/L
- Na (9 h): 140 meq/L
- PL (9 h): 136.6 mg/dL
- RALB (9 h): 3 g/dL
- TBIL (9 h): 0.028 mg/dL
- TC (9 h): 73.8 mg/dL
- TG (9 h): 71.2 mg/dL
- TP (9 h): 5.5 g/dL
- gamma-GTP (9 h): 1.4 IU/L
- TERMINAL_BW (24 h): 221.6 g
- APTT (24 h): 21.5 s
- Bas (24 h): 0%
- Eos (24 h): 0.8%
- Fbg (24 h): 281.4 mg/dL
- Hb (24 h): 12.6 g/dL
- Ht (24 h): 37.2%
- Lym (24 h): 78.8%
- MCH (24 h): 21.1 pg
- MCHC (24 h): 34%
- MCV (24 h): 62.1 fL
- Mono (24 h): 2.8%
- Neu (24 h): 17%
- PT (24 h): 15.9 s
- Plat (24 h): 132.3 x10_4/uL
- RBC (24 h): 597.8 x10_4/ul
- Ret (24 h): 7%
- WBC (24 h): 96.2 x10_2/uL
- KIDNEY_L (24 h): 0.9 g
- KIDNEY_R (24 h): 1 g
- KIDNEY_TOTAL (24 h): 1.9 g
- LIVER (24 h): 10.4 g
- A/G (24 h): 1.3
- ALP (24 h): 1657.8 IU/L
- ALT (24 h): 47.4 IU/L
- AST (24 h): 78.2 IU/L
- BUN (24 h): 19.2 mg/dL
- CRE (24 h): 0.2 mg/dL
- Ca (24 h): 11 mg/dL
- Cl (24 h): 105 meq/L
- DBIL (24 h): 0 mg/dL
- GLC (24 h): 186.6 mg/dL
- IP (24 h): 7 mg/dL
- K (24 h): 4.7 meq/L
- LDH (24 h): 234.6 IU/L
- Na (24 h): 140.4 meq/L
- PL (24 h): 136.4 mg/dL
- RALB (24 h): 3 g/dL
- TBIL (24 h): 0.012 mg/dL
- TC (24 h): 68.4 mg/dL
- TG (24 h): 88.8 mg/dL
- TP (24 h): 5.3 g/dL
- gamma-GTP (24 h): 1.2 IU/L
